Series [1] is described as follows: Mouse Liver Microsome Metabolic Stability Assay. The class given is in vitro ADME. To be noted: pH 7.4, Mouse liver microsomes, 37° C., NADPH, read-out: t½. As for the experimental part:
Biological Example 10: Assessment of Metabolic Stability in Mouse Liver Microsomes
Metabolic Stability Assay: Microsomal incubations were carried out in 96-well plates in 5 aliquots of 30 μL each (one for each time point). Liver microsomal incubation medium comprised of phosphate buffer (100 mM, pH 7.4), MgCl2 (3.3 mM), NADPH (3 mM), glucose-6-phosphate (5.3 mM), glucose-6-phosphate dehydrogenase (0.67 units/ml) with 0.42 mg of liver microsomal protein per mL. In the control reactions the NADPH-cofactor system was substituted with phosphate buffer. Test compounds (2 μM, final solvent concentration 1.6%) were incubated with microsomes at 37° C., shaking at 100 rpm. Each reaction was performed in duplicates. Five time points over 40 minutes were analyzed. The reactions were stopped by adding 5 volumes of methanol containing internal standard to incubation aliquots, followed by protein sedimentation by centrifuging at 5500 rpm for 4 minutes. Supernatants were analyzed using the HPLC system coupled with tandem mass spectrometer.
The elimination constant (kel), half-life (t1/2) and intrinsic clearance (Clint) were determined in plot of […] versus time, using linear regression analysis:
In order to indicate the quality of the linear regression analysis, the R (correlation coefficient) values are provided. In some cases, the last time point is excluded from the calculations to ensure acceptable logarithmic linearity of decay.
Table 9 show metabolic stability data for selected compounds tested in the Mouse Liver Microsome Metabolic Stability assay described above.
Background: Liver microsomes are vesicles of endoplasmic reticulum, rich in cytochrome P450 enzymes.

In a further series the test system is Erk1/2 phosphorylation. Put plainly: Erk1/2 Phosphorylation Assay (western blot), Panc-1. The class given is cell-based, human. To be noted: at 10 μM, * = activation. The method, boiled down:
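Phospho-Erk1/2 (Thr202/Tyr204) was detected by western blot in lysates of Panc-1 cells (KRas G12D). These had 6 h, 37° C exposure to 10 μM compound or a dilution series for IC50, in 0.3% DMSO. Cells were either starved overnight in 0.5% FBS with a 15-min 1.5 ng/ml EGF pulse, or kept unstimulated in 10% FBS.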

The nature of series [2]: Kinetic Solubility Assay in pH 7.4 Buffer + 2% DMSO. The class given is physicochemical. To be noted: phosphate-buffered saline pH 7.4 with 2% DMSO, aqueous buffer, kinetic from dmso stock, 25° C., two hours. As to the method:
Biological Example 9: Kinetic Solubility
Kinetic solubility assay in pH 7.4 Buffer+2% DMSO (“Kinetic Solubility Assay) was performed according to the following protocol: Briefly, using a 20 mM stock solution of the tested compounds in 100% DMSO, dilutions were prepared to a theoretical concentration of 400 μM in duplicates in phosphate-buffered saline pH 7.4 (138 mM NaCl, 2.7 mM KCl, 10 mM K-phosphate) with 2% final DMSO. The tested compounds dilutions in PBS were further allowed to equilibrate at 25° C. on a thermostatic shaker for two hours and then filtered through HTS filter plates using a vacuum manifold. The filtrates of the test compounds were diluted 2-fold with acetonitrile with 2% DMSO before measuring.
In parallel, using a 20 mM stock solution of the tested compounds in 100% DMSO, dilutions were prepared to theoretical concentrations of 0 μM (blank), 10 μM, 25 μM, 50 μM, 100 μM, and 200 μM in 50% acetonitrile/PBS with 2% final DMSO to generate calibration curves. Ondansetron was used as a reference compound to control proper assay performance. 200 μL of each sample was transferred to a 96-well plate and measured in the 230-550 nm range with a 5 nm step.
The concentrations of compounds in PBS filtrate are calculated using a dedicated Microsoft Excel calculation script. Proper absorbance wavelengths for calculations are selected for each compound manually based on absorbance maximums (absolute absorbance unit values for the minimum and maximum concentration points within the 0-3 OD range). Each final dataset is visually evaluated by the operator, and goodness of fit (R2) is calculated for each calibration curve. The effective range of this assay is approximately 2-400 μM and the compounds returning values close to the upper limit of the range may have higher actual solubility (e.g., 5′-deoxy-5-fluorouridine).
Table 8 show kinetic solubility data for selected compounds tested in the Kinetic Solubility assay described above.

As a reminder, the solubility is how much of the substance goes into solution per volume.

Structures are written as SMILES.

Regarding `COc1cc(Nc2nc(-c3nccn3C)nn3cc(-c4ccn(C(C)C)n4)c(C)c23)ncn1` [Compound 6, 6-(1-Isopropyl-1H-pyrazol-3-yl)-N-(6-methoxypyrimidin-4-yl)-5-methyl-2-(1-methyl-1H-imidazol-2-yl)pyrrolo[2,1-f][1,2,4]triazin-4-amine], the half-life at 2 µM in series [1] is above 10 min. The “% inh of Erk1/2 phosphorylation in Panc-1” value (shortened to “% inh”) with Erk1/2 phosphorylation is listed as 0 (0% inhibition). In addition, the solubility at 2 h in series [2] is below 10 µM.
Turning to `COc1ccnc(Nc2nc(-c3nccn3C)nn3cc(-c4cccnc4)c(C)c23)n1` [Compound 158, N-(4-Methoxy-pyrimidin-2-yl)-5-methyl-2-(1-methyl-1H-imidazol-2-yl)-6-(pyridin-3-yl)pyrrolo[2,1-f][1,2,4]triazin-4-amine], in series [1], the half-life at 2 µM is below 10 min. The “% inh” value in the series with Erk1/2 phosphorylation is given as “A (1-25% inhibition)”. Further, in series [2], the solubility at 2 h fell in the range of 10 to 30 µM.
Turning to `Cc1ccnc(Nc2nc(-c3nccn3C)nn3cc(-c4ccn(C5CC5)n4)c(C)c23)c1` [Compound 144, 6-(1-Cyclopropyl-1H-pyrazol-3-yl)-5-methyl-2-(1-methyl-1H-imidazol-2-yl)-N-(4-methylpyridin-2-yl)pyrrolo[2,1-f][1,2,4]triazin-4-amine], in series [1], the half-life at 2 µM was above 10 min. In addition, the “% inh” value in the series with Erk1/2 phosphorylation is “A (1-25% inhibition)”. For the same molecule, in series [2], the solubility at 2 h was below 10 µM.
In the case of `CCOc1ccnc(Nc2nc(-c3nccn3C)nn3cc(-c4ccn(C5CC5)n4)c(C)c23)c1` [Compound 141, 6-(1-Cyclopropyl-1H-pyrazol-3-yl)-N-(4-ethoxypyridin-2-yl)-5-methyl-2-(1-methyl-1H-imidazol-2-yl)pyrrolo[2,1-f][1,2,4]triazin-4-amine], the half-life at 2 µM in series [1] was above 10 min. In the series on Erk1/2 phosphorylation, the “% inh” value is “B (26-49% inhibition)”. Besides, the solubility at 2 h in series [2] is 10 to 30 µM.
In the case of `Cc1c(-c2cccnc2)cn2nc(-c3nccn3C)nc(Nc3ccncn3)c12` [Compound 156, 5-Methyl-2-(1-methyl-1H-imidazol-2-yl)-6-(pyridin-3-yl)-N-(pyrimidin-4-yl)pyrrolo[2,1-f][1,2,4]triazin-4-amine], the half-life at 2 µM in series [1] is above 10 min. For the same molecule, in the series on Erk1/2 phosphorylation, the “% inh” value is “D* (85-100% activation)”.
`Cc1c(-c2ccn(C)n2)cn2nc(-c3nccn3C)nc(Nc3cc(OC(F)F)ccn3)c12` [Compound 128, N-(4-(Difluoromethoxy)pyridin-2-yl)-5-methyl-2-(1-methyl-1H-imidazol-2-yl)-6-(1-methyl-1H-pyrazol-3-yl)pyrrolo[2,1-f][1,2,4]triazin-4-amine]: the half-life at 2 µM in series [1] is above 10 min. In addition, in the series on Erk1/2 phosphorylation, the “% inh” value is on record as “D* (85-100% activation)”.
For the molecule `Cc1c(-c2ccn(C3CC3)n2)cn2nc(-c3nccn3C)nc(Nc3ccccn3)c12` [Compound 143, 6-(1-Cyclopropyl-1H-pyrazol-3-yl)-5-methyl-2-(1-methyl-1H-imidazol-2-yl)-N-(pyridin-2-yl)pyrrolo[2,1-f][1,2,4]triazin-4-amine], in series [1], the half-life at 2 µM is below 10 min. Also, the “% inh” value with Erk1/2 phosphorylation is “D* (85-100% activation)”. For the same molecule, in series [2], the solubility at 2 h was below 10 µM.
In the case of `Cc1c(-c2ccn(C)n2)cn2nc(-c3nccn3C)nc(Nc3cc4n(n3)CCC4)c12` [Compound 100, N-(5,6-Dihydro-4H-pyrrolo[1,2-b]pyrazol-2-yl)-5-methyl-2-(1-methyl-1H-imidazol-2-yl)-6-(1-methyl-1H-pyrazol-3-yl)pyrrolo[2,1-f][1,2,4]triazin-4-amine], in the series with Erk1/2 phosphorylation, the “% inh” value was “C* (46-84% activation)”. The solubility at 2 h in series [2] is 10 to 30 µM.
`Cc1c(-c2ccn(C)n2)cn2nc(-c3nccn3C)nc(Nc3cc(C4CC4)[nH]n3)c12` [Compound 104, N-(5-Cyclopropyl-1H-pyrazol-3-yl)-5-methyl-2-(1-methyl-1H-imidazol-2-yl)-6-(1-methyl-1H-pyrazol-3-yl)pyrrolo[2,1-f][1,2,4]triazin-4-amine]: the half-life at 2 µM in series [1] is above 10 min. The “% inh” value in the series on Erk1/2 phosphorylation is listed as “D* (85-100% activation)”. The solubility at 2 h in series [2] is below 10 µM.
`Cc1c(-c2ccn(C)n2)cn2nc(-c3nccn3C)nc(Nc3cc(OCC(F)(F)F)ccn3)c12` [Compound 129, 5-Methyl-2-(1-methyl-1H-imidazol-2-yl)-6-(1-methyl-1H-pyrazol-3-yl)-N-(4-(2,2,2-trifluoroethoxy)pyridin-2-yl)pyrrolo[2,1-f][1,2,4]triazin-4-amine]: the half-life at 2 µM in series [1] was above 10 min. The “% inh” value in the series on Erk1/2 phosphorylation is given as “D* (85-100% activation)”.
For the molecule `Cc1c(-c2ccn(C)n2)cn2nc(-c3nccn3C)nc(Nc3cc4n(n3)CCO4)c12` [Compound 124, N-(5-Methyl-2-(1-methyl-1H-imidazol-2-yl)-6-(1-methyl-1H-pyrazol-3-yl)pyrrolo[2,1-f][1,2,4]triazin-4-yl)-2,3-dihydropyrazolo[5,1-b]oxazol-6-amine], the half-life at 2 µM in series [1] was above 10 min. The “% inh” value with Erk1/2 phosphorylation was “C* (46-84% activation)”. Further, the solubility at 2 h in series [2] lay in the range of 10 to 30 µM.
Consider `COc1ccnc(Nc2nc(-c3nccn3C)nn3cc(-c4ccn(C5CC5)n4)c(C)c23)c1` [Compound 137, 6-(1-Cyclopropyl-1H-pyrazol-3-yl)-N-(4-methoxypyridin-2-yl)-5-methyl-2-(1-methyl-1H-imidazol-2-yl)pyrrolo[2,1-f][1,2,4]triazin-4-amine], for which, in series [1], the half-life at 2 µM is above 10 min. Further, the “% inh” value in the series with Erk1/2 phosphorylation is on record as “B* (26-49% activation)”. For the same molecule, the solubility at 2 h in series [2] was in the range of 10 to 30 µM.
Consider `Cc1c(-c2ccn(C3CC3)n2)cn2nc(-c3nccn3C)nc(Nc3cc(OC4CC4)ccn3)c12` [Compound 142, N-(4-Cyclopropoxypyridin-2-yl)-6-(1-cyclopropyl-1H-pyrazol-3-yl)-5-methyl-2-(1-methyl-1H-imidazol-2-yl)pyrrolo[2,1-f][1,2,4]triazin-4-amine], for which the half-life at 2 µM in series [1] was above 10 min. Also, the “% inh” value in the series with Erk1/2 phosphorylation is “C (50-84% inhibition)”. Besides, in series [2], the solubility at 2 h lay in the range of 10 to 30 µM.
Turning to `COc1ccnc(Nc2nc(-c3nccn3C)nn3cc(-c4ccn(C)n4)c(C)c23)c1` [Compound 102, N-(4-Methoxypyridin-2-yl)-5-methyl-2-(1-methyl-1H-imidazol-2-yl)-6-(1-methyl-1H-pyrazol-3-yl)pyrrolo[2,1-f][1,2,4]triazin-4-amine], the half-life at 2 µM in series [1] was above 10 min. Besides, the “% inh” value with Erk1/2 phosphorylation is given as “A* (1-25% activation)”. In series [2], the solubility at 2 h is above 30 µM.
Take `Cc1c(-c2ccn(C)n2)cn2nc(-c3nccn3C)nc(Nc3cc(OC4CC4)ccn3)c12` [Compound 126, N-(4-Cyclopropoxypyridin-2-yl)-5-methyl-2-(1-methyl-1H-imidazol-2-yl)-6-(1-methyl-1H-pyrazol-3-yl)pyrrolo[2,1-f][1,2,4]triazin-4-amine]: in series [1], the half-life at 2 µM was above 10 min. For the same molecule, the “% inh” value in the series with Erk1/2 phosphorylation is “D* (85-100% activation)”.
With `Cc1c(-c2ccn(C)n2)cn2nc(-c3nccn3C)nc(Nc3cc(OC(F)(F)F)ccn3)c12` [Compound 127, 5-Methyl-2-(1-methyl-1H-imidazol-2-yl)-6-(1-methyl-1H-pyrazol-3-yl)-N-(4-(trifluoromethoxy)pyridin-2-yl)pyrrolo[2,1-f][1,2,4]triazin-4-amine], in series [1], the half-life at 2 µM is below 10 min. Besides, the “% inh” value in the series on Erk1/2 phosphorylation is on record as “D* (85-100% activation)”.

The values above are taken from patent US12459951B2, “Compounds that interact with RAS superfamily proteins for treatment of cancers, inflammatory diseases, rasopathies, and fibrotic disease” (SHY Therapeutics, LLC, priority 2022, dated 2025).
